Source: US20240287074A1, “SALTS AND CRYSTALS” (Kinoxis Therapeutics Pty Ltd, priority 2020, published 2024)
Structures can show the parent of a compound that is named as a salt. Marks after values point to notes of the source that are not given here.

Legend:
[1] = 1-week stability studies (XRPD, HPLC); type: physicochemical; details: 1 week; ambient temperature, light and humidity; 40° C./75% RH; 80° C.
Experimental: The isolated 1-methyl-1,4,5,10-tetrahydropyrazolo[3,4-b][1,5]benzodiazepine freebase was characterized by TG/DTA, DSC, DVS with post-DVS, XRPD, HPLC, ^1H NMR and LC-MS, as per the methods detailed above. The 1-methyl-1,4,5,10-tetrahydropyrazolo[3,4-b][1,5]benzodiazepine freebase was stored at 40° C./75% relative humidity (RH) for 1 week to determine the stability of the material at increased RH and to identify potential hydrate formation.
One-week stability studies were conducted on the freebase (example 1), phosphate form 1 (example 3) and L-tartrate form 1 (example 5) salts using the following procedures: • Approximately 20 mg of each form was weighed into 3×2 mL glass vials. • One vial for each form was stored under the following conditions for 1-week: • 1. Ambient temperature, light and humidity (unsealed vial) • 2. 40° C./75% RH (unsealed vial) • 3. 80° C. (sealed vial) • The samples were collected after 1-week and observations were made. • The solids were analyzed by XRPD and HPLC.

[2] = Thermodynamic solubility in PBS buffer pH 7.4; type: physicochemical
Experimental: The thermodynamic solubility of freebase (example 1), phosphate form 1 (example 3) and L-tartrate form 1 (example 5) were assessed in phosphate buffered saline (PBS) buffer at pH 7.4 according to the following procedure: • Approximately 30 mg of each form was weighed into 2 mL glass vials. • 100 μL of buffer solution was added to each vial until partial dissolution was observed. • The observed slurries were agitated at ambient temperature for about 24 hours. • The samples were collected, and observations were recorded. • The samples were filtered via centrifugation. • The pH of the mother liquors were recorded. • The concentration of the mother liquors were recorded by HPLC.

[3] = Oral pharmacokinetics in rats; type: in vivo; details: male Sprague Dawley rats; for Plasma AUC0-inf/Dose / Plasma Cmax/Dose: dose-normalised; for Plasma AUC0-inf/Dose / Plasma Cmax/Dose / % Dose in urine: listed as Phosphate salt; for Apparent t1/2 / BA % / Plasma AUC0-inf / Plasma Cmax / Tmax / % Dose in urine: 5 mg/kg target dose (freebase equivalent), 5 mg/kg; for Apparent t1/2 / BA % / Plasma AUC0-inf / Plasma Cmax / Tmax: mean ± SD, n = 3, listed as Phosphate salt; for % Dose in urine: urine up to 24 h
Experimental: N=3 rats were run in each of the four conditions: • (1) Di-HCL salt in saline • (2) Di-HCL salt in methocel • (3) Phosphate form 1 in saline • (4) Phosphate form 1 in methocel
On the day of dosing the solid compounds were dissolved in either Saline (0.9%) or 0.5% hydroxypropyl methylcellulose (Methocel E3 Premium LV) in Milli-Q water. The formulations were then thoroughly vortexed to produce colourless solutions.
Overnight-fasted rats with adlibitum access to water were administered their dose of the various forms of the compound of the invention via oral gavage (PO) at a dose volume of 3 ml/kg and a dose of 5 mg/kg freebase equivalent. Food access was re-instated 4 hours (h) post-dose. Samples of arterial blood were collected up to 24 h post-dose. After collection, samples were centrifuged, plasma was removed and stored frozen at −80° C. before being analysed by LC-MS. Urine samples were collected at pre, 0-4 h, 4-7 h and 7-24 h post-dose and were analysed by LC-MS following extraction.

changes in form by XRPD [1]: no changes in form
solubility ([2]; PBS buffer at pH 7.4, ambient temperature, about 24 hours, HPLC): 7400 µg/mL
pH (t = 24 h) ([2]; mother liquor of PBS pH 7.4 slurry): 3.48
Plasma AUC0-inf/Dose ([3]; Methocel): 0.85 ± 0.18 (μg*h/mL)/(mg/kg)
Plasma Cmax/Dose ([3]; Methocel): 0.41 ± 0.05 (μg/mL)/(mg/kg)
Plasma AUC0-inf/Dose ([3]; Saline): 1.02 ± 0.36 (μg*h/mL)/(mg/kg)
Plasma Cmax/Dose ([3]; Saline): 0.43 ± 0.03 (μg/mL)/(mg/kg)
Apparent t1/2 ([3]; Methocel): 36 ± 1.2 min
BA % ([3]; Methocel): 93.2 ± 20^b %
Plasma AUC0-inf ([3]; Methocel): 4160 ± 880 ng·h/mL
Plasma Cmax ([3]; Methocel): 2010 ± 250 ng/mL
Tmax ([3]; Methocel): 15 ± 0 min
% Dose in urine ([3]; Methocel): 0.222 ± 0.093%
Apparent t1/2 ([3]; Saline): 48.6 ± 12 min
BA % ([3]; Saline): 111 ± 40^b %
Plasma AUC0-inf ([3]; Saline): 4950 ± 1750 ng·h/mL
Plasma Cmax ([3]; Saline): 2090 ± 140 ng/mL
Tmax ([3]; Saline): 30 ± 24 min
% Dose in urine ([3]; Saline): 0.395^d %
exposure profile compared with dihydrochloride salt form ([3]; saline or methocel vehicle): same exposure profile
SMILES: Cn1ncc2c1Nc1ccccc1NC2 [Phosphate form 1, phosphoric acid addition salt of 1-methyl-1,4,5,10-tetrahydropyrazolo[3,4-b][1,5]benzodiazepine]
changes in purity by HPLC [1]: did not identify any significant changes in purity
